Measurements published in patent US10869871B2, “Compositions and methods of modulating short-chain dehydrogenase activity” (CASE WESTERN RESERVE UNIVERSITY, priority 2013, dated 2020).

Columns and labels:
15-PGDH protein = test: Western blot of 15-PGDH protein levels in treated cell lines; type: cell-based; conditions: […] compound for 48 hours
Hepatocyte stability = type: in vitro ADME; conditions: compound in presence of hepatocytes in culture; in words
Procedure: Time to inhibition refers to the time needed to inhibit the generation of NADH by 15-PGDH from the moment with drug is added into the reaction mix. Delta Tm refers to the shift in melting temperature of recombinant 15-PGDH in the presence of drug (with cofactor NADH also present). Concentration of Full Cell Line Reporter Induction refers to the concentration of drug that needs to be added to reporter cell line to achieve maximal induction of the 15-PGDH-luciferase gene fusion reporter cassette, as measured by luciferase assays. Hepatocyte stability refers to the half-life of compound in the presence of hepatocytes in culture. Toxicity refers to the concentration of compound needed to decrease cell numbers in a cell culture assay.

bone marrow = test: Competitive bone marrow transplant chimerism (CD45.2 donor treated); type: in vivo, mouse; conditions: donor 5 mg/kg IP daily for 3 doses; weeks 12 and 16
Procedure: On day 3 mice were sacrificed, marrow flushed and mixed at a 1:1 ratio with vehicle treated CD45.1 marrow. 2 million whole BM cells were injected into the tail vein of lethally irradiated CD45.1 mice and percent chimerism measured via flow cytometry at weeks 8, 12, 16.

[1] = Survival of 11Gy irradiated C57BL/6J mice receiving bone marrow allograft; type: in vivo, mouse; conditions: 5 mg/kg IP bid
Description: The experimental design is depicted in FIG. 50.
Under the conditions of the mouse colony during this study, control mice receiving 100,000-500,000 cells are all dead between days 4-13 of study. […] Such activity would be of particular utility in settings, such as transplantation with umbilical cord stem cells, in which donor cell numbers are limited.

[2] = Survival after acetaminophen (Tylenol) LD50 dose 600 mg/kg IP; type: in vivo, mouse; conditions: for number of mice surviving: first dose immediately after Tylenol injection;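 for all read-outs here: controls were mice given only vehicle, dosed once or twice per day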
[3] = Survival of lethally irradiated mice after bone marrow transplant (30 days); type: in vivo, mouse; conditions: 5 mg/kg IP bid
Description: A matched control cohort received injections with vehicle only. On day one mice received an infusion of donor marrow at doses of 100,000 cells; 200,000 cells; or 500,000 cells. […] Among mice receiving 200,000 donor cells, all control mice were dead by day 12.

blood and bone marrow = test: Blood and bone marrow recovery after transplant of 500,000 donor marrow cells; type: in vivo, mouse

Compound: CCCC[S+]([O-])c1sc2nc(-c3cccs3)cc(-c3ccccc3)c2c1N (stereo not drawn) [SW033291, 2-(butylsulfinyl)-4-phenyl-6-(thiophen-2-yl)thieno[2,3-b]pyridin-3-amine]
- levels of 15-PGDH protein (western blot) (15-PGDH protein): increase levels of 15-PGDH protein
- Hepatocyte stability (Hepatocyte stability): Stable > couple hrs
- percent blood chimerism of CD45.2 marked cells (bone marrow): significantly increased
- number of surviving mice ([1]; 1 × 10^5 donor cells, Day 0): 3
- number of surviving mice ([1]; 1 × 10^5 donor cells, Day 1): 3
- number of surviving mice ([1]; 1 × 10^5 donor cells, Day 2): 3
- number of surviving mice ([1]; 1 × 10^5 donor cells, Day 3): 3
- number of surviving mice ([1]; 1 × 10^5 donor cells, Day 4): 2
- number of surviving mice ([1]; 1 × 10^5 donor cells, Day 5): 1
- number of surviving mice ([1]; 1 × 10^5 donor cells, Day 6): 0
- number of surviving mice ([1]; 2 × 10^5 donor cells, Day 0): 3
- number of surviving mice ([1]; 2 × 10^5 donor cells, Day 1): 3
- number of surviving mice ([1]; 2 × 10^5 donor cells, Day 2): 3
- number of surviving mice ([1]; 2 × 10^5 donor cells, Day 3): 3
- number of surviving mice ([1]; 2 × 10^5 donor cells, Day 4): 3
- number of surviving mice ([1]; 2 × 10^5 donor cells, Day 5): 3
- number of surviving mice ([1]; 2 × 10^5 donor cells, Day 6): 2
- number of surviving mice ([1]; 2 × 10^5 donor cells, Day 7): 2
- number of surviving mice ([1]; 2 × 10^5 donor cells, Day 8): 2
- number of surviving mice ([1]; 2 × 10^5 donor cells, Day 9): 2
- number of surviving mice ([1]; 2 × 10^5 donor cells, Day 10): 2
- number of surviving mice ([1]; 2 × 10^5 donor cells, Day 11): 2
- number of surviving mice ([1]; 2 × 10^5 donor cells, Day 12): 1
- number of surviving mice ([1]; 2 × 10^5 donor cells, Day 13): 0
- number of surviving mice ([1]; 5 × 10^5 donor cells, Day 0): 3
- number of surviving mice ([1]; 5 × 10^5 donor cells, Day 1): 3
- number of surviving mice ([1]; 5 × 10^5 donor cells, Day 2): 3
- number of surviving mice ([1]; 5 × 10^5 donor cells, Day 3): 3
- number of surviving mice ([1]; 5 × 10^5 donor cells, Day 4): 3
- number of surviving mice ([1]; 5 × 10^5 donor cells, Day 5): 3
- number of surviving mice ([1]; 5 × 10^5 donor cells, Day 6): 3
- number of surviving mice ([1]; 5 × 10^5 donor cells, Day 7): 3
- number of surviving mice ([1]; 5 × 10^5 donor cells, Day 8): 2
- number of surviving mice ([1]; 5 × 10^5 donor cells, Day 9): 2
- number of surviving mice ([1]; 5 × 10^5 donor cells, Day 10): 2
- number of surviving mice ([1]; 5 × 10^5 donor cells, Day 11): 2
- number of surviving mice ([1]; 5 × 10^5 donor cells, Day 12): 2
- number of surviving mice ([1]; 5 × 10^5 donor cells, Day 13): 2
- number of surviving mice ([1]; 5 × 10^5 donor cells, Day 19): 2
- survival versus control ([2]; 5 mg/kg IP beginning immediately following acetaminophen, once or twice daily, through 120 hours): No difference
- Survival (number of mice) ([2]; 5 mg/kg IP bid from 3 hours prior to acetaminophen, 6 doses, cohort of 6, 0 hrs): 6
- Survival (number of mice) ([2]; 5 mg/kg IP bid from 3 hours prior to acetaminophen, 6 doses, cohort of 6, 16 hr): 6
- Survival (number of mice) ([2]; 5 mg/kg IP bid from 3 hours prior to acetaminophen, 6 doses, cohort of 6, 24 hrs): 5
- Survival (number of mice) ([2]; 5 mg/kg IP bid from 3 hours prior to acetaminophen, 6 doses, cohort of 6, 48 hrs): 3
- Survival (number of mice) ([2]; 5 mg/kg IP bid from 3 hours prior to acetaminophen, 6 doses, cohort of 6, 64 hrs): 3
- Survival (number of mice) ([2]; 5 mg/kg IP bid from 3 hours prior to acetaminophen, 6 doses, cohort of 6, 72 hrs): 3
- Survival (number of mice) ([2]; 5 mg/kg IP bid from 3 hours prior to acetaminophen, 6 doses, cohort of 6, 88 hr): 3
- Survival (number of mice) ([2]; 5 mg/kg IP bid from 3 hours prior to acetaminophen, 6 doses, cohort of 6, 96 hr): 3
- Survival (number of mice) ([2]; 5 mg/kg IP bid from 3 hours prior to acetaminophen, 6 doses, cohort of 6, 112 hr): 3
- Survival (number of mice) ([2]; 5 mg/kg IP bid from 3 hours prior to acetaminophen, 6 doses, cohort of 6, 120 hr): 3
- Survival (number of mice) ([2]; 5 mg/kg IP bid from 48 hours prior to acetaminophen, 9 doses, cohort of 12, 0 hrs): 12
- Survival (number of mice) ([2]; 5 mg/kg IP bid from 48 hours prior to acetaminophen, 9 doses, cohort of 12, 16 hr): 12
- Survival (number of mice) ([2]; 5 mg/kg IP bid from 48 hours prior to acetaminophen, 9 doses, cohort of 12, 24 hrs): 12
- Survival (number of mice) ([2]; 5 mg/kg IP bid from 48 hours prior to acetaminophen, 9 doses, cohort of 12, 40 hrs): 11
- Survival (number of mice) ([2]; 5 mg/kg IP bid from 48 hours prior to acetaminophen, 9 doses, cohort of 12, 48 hrs): 10
- Survival (number of mice) ([2]; 5 mg/kg IP bid from 48 hours prior to acetaminophen, 9 doses, cohort of 12, 64 hrs): 10
- Survival (number of mice) ([2]; 5 mg/kg IP bid from 48 hours prior to acetaminophen, 9 doses, cohort of 12, 72 hrs): 10
- Survival (number of mice) ([2]; 5 mg/kg IP bid from 48 hours prior to acetaminophen, 9 doses, cohort of 12, 88 hr): 10
- Survival (number of mice) ([2]; 5 mg/kg IP bid from 48 hours prior to acetaminophen, 9 doses, cohort of 12, 96 hr): 10
- Survival (number of mice) ([2]; 5 mg/kg IP bid from 48 hours prior to acetaminophen, 9 doses, cohort of 12, 112 hr): 10
- Survival (number of mice) ([2]; 5 mg/kg IP bid from 48 hours prior to acetaminophen, 9 doses, cohort of 12, 120 hr): 10
- number of mice surviving ([2]; 1 dose daily, cohort of 6, 0 hrs): 6
- number of mice surviving ([2]; 1 dose daily, cohort of 6, 16 hr): 6
- number of mice surviving ([2]; 1 dose daily, cohort of 6, 24 hrs): 6
- number of mice surviving ([2]; 2 dose daily, cohort of 6, 0 hrs): 6
- number of mice surviving ([2]; 2 dose daily, cohort of 6, 16 hr): 6
- number of mice surviving ([2]; 2 dose daily, cohort of 6, 24 hrs): 6
- number of mice surviving ([2]; 2 dose daily, cohort of 6, 48 hrs): 3
- number of mice surviving ([2]; 2 dose daily, cohort of 6, 64 hrs): 3
- number of mice surviving ([2]; 2 dose daily, cohort of 6, 72 hrs): 3
- number of mice surviving ([2]; 2 dose daily, cohort of 6, 88 hr): 3
- number of mice surviving ([2]; 2 dose daily, cohort of 6, 96 hr): 3
- number of mice surviving ([2]; 2 dose daily, cohort of 6, 112 hr): 3
- number of mice surviving ([2]; 2 dose daily, cohort of 6, 120 hr): 3
- median survival versus control ([3]; 100,000 donor cells): approximate doubling of median survival
- survival at 30 days ([3]; 500,000 donor cells): all survived
- total platelet count versus control (blood and bone marrow; day 5 after transplant): significantly higher total platelet count
- total white count versus control (blood and bone marrow; day 5 after transplant): significantly higher total white count
- platelets (blood and bone marrow; day 8 after transplant): 77,000
- neutrophils (blood and bone marrow; day 12 after transplant): 332
- neutrophils (blood and bone marrow; day 18 after transplant): 835
